pIC50: −log10 of the molar value. Read-outs that look alike come from different tables or passages of the source.
Assays:
[1] = system: A2780 ovarian cancer cells; experiment: MTT reduction assay, 4 h, rapid toxicity, A2780; assay type: cell-based; conditions: 4 h treatment
Procedure: (§1) The compounds were tested between 0.001694 and 33.3333 µM, using a 4-hour-long MTT test to assess rapid toxicity and a 48-hour-long SRB assay to assess the long-term effects of the inhibition of proliferation (cytostasis). The MTT assay assesses the activity of mitochondrial complex I and detects rapid, direct toxicity, as well as indicating apoptosis and necrosis. The SRB assay measures the total protein content that is proportional to cell numbers; therefore, the assay can detect changes in cell numbers and can thus be used as a readout for cell proliferation. The SRB assay was performed after 48 h of treatment (with the exception of L428 cells, which were tested for 96 h due to their slower proliferation rate). In this setting, the SRB assay informs us of long-term changes to cell proliferation. We assessed the maximal inhibition within that concentration range, and descriptive statistics were performed. We performed a one-way ANOVA, followed by the Kruskal–Wallis test, regardless of the normal or non-normal distribution of the data. Due to the large number of significance values, the results of the significance calculations are provided in an Excel spreadsheet at https://figshare.com/s/28d14597d5041f08eb08 (accessed on 6 January 2022), among other primary data of the study. Where possible, nonlinear regression was performed on the curves to determine the IC50 values ((inhibitor) vs. response—variable slope (four parameters) method with Graphpad v8.0.1). […] In Table 5, we added the IC50 values that we determined for a set of 4 active ruthenium half-sandwich complexes we identified previously, to be used in subsequent structure-activity relationship (SAR) analyses.
(§2) A2780 cells were cultured in RMPI 1640 medium, supplemented with 10% fetal calf serum, 2 mM glutamine, and 1% penicillin-streptomycin.
The MTT reduction assay measures the activity of mitochondrial complex I and can be used to detect apoptosis and necrosis. The assay was performed similarly to the method used in [72]. Briefly, cells were plated in 96-well plates the day before the assay. Cells were treated with the compounds for 4 h, then MTT was added at 0.5 mg/mL final concentration and the cells were incubated at 37 °C in a cell incubator. The culture media were removed and the reduced MTT dye was dissolved in dimethyl-sulfoxide (DMSO) and plates were measured in a plate photometer (Thermo Scientific Multiscan GO spectrophotometer, Waltham, MA, USA) at 540 nm. On each plate, wells were designed to contain untreated/vehicle-treated cells. In the calculations, the readings for these wells were considered as 1 and all readings were expressed relative to these values.

[2] = system: A2780 ovarian cancer cells; experiment: SRB assay, 48 h, cytostasis, A2780; assay type: cell-based; conditions: 48 h treatment
Procedure: as §1, §2
(§3) The assay was performed similarly to the method used in [73]. Cells were seeded in 96-well plates the day before the assay. Cells were treated with the compounds for 48 h, with the exception of L428, where 96 h of treatment was applied. Cells were fixed with 10% trichloroacetic acid (TCA). Fixed cells were washed in distilled water 3 times, followed by staining with SRB (0.4 m/V% dissolved in 1% acetic acid) for 10 min. The stained cells were washed in 1% acetic acid 5 times; the acetic acid was removed, and the cells were left to dry. Protein-bound SRB was released by adding 100 µL 10 mM Tris base. Plates were measured in a plate photometer (Thermo Scientific Multiscan GO spectrophotometer, Waltham, MA, USA) at 540 nm. On each plate, wells were designed to contain untreated cells. In calculations, the readings for these wells were considered as 1 and all readings were expressed relative to these values.
(§4) Statistical analysis was performed using the 8.0.1 version of Graphpad Prism. Values were tested for normal distribution, using the d’Agostino and Pearson normality test. When necessary, values were log-normalized or were normalized using the Box-Cox normalization method or using a two-step transformation, as indicated in the figure captions. Nonlinear regression was performed using the built-in “[Inhibitor] vs. Response—Variable slope (four parameters), least-square fit” utility of Graphpad, yielding the IC50 and Hill slope values.

[3] = Determination of the distribution coefficients (logD), n-octanol/PBS; assay type: physicochemical; conditions: n-octanol / PBS pH = 7.40, rt
Procedure: Before starting the experiments, n-octanol was saturated with an aqueous PBS solution (pH = 7.40) and vice versa. A solution of the appropriate complex (approximately 0.2–0.3 mg) in a mixture of 2.50 mL pre-saturated n-octanol and 2.50 mL pre-saturated PBS buffer was made, and the resulting mixture was then vigorously stirred for 3 days at rt. Based on our previous NMR stability experiments, this time is long enough to reach equilibrium among the various ionic complex species. Due to the lipophilic/hydrophilic features of the complexes, those with benzoyl protection could primarily be found in the n-octanol, while the complexes with O-peracetylated and O-deprotected ligands were in the aqueous PBS phase. The corresponding separated solution was centrifuged (ScanSpeed 406G instrument, 4000 RPM for 5 min) and the absorption of the ”stock solution” was determined (VWR UV-1600PC Spectrophotometer, 270–420 nm). Then, 2.00 mL of the stock solution was vigorously stirred with 16.00 mL of pre-saturated n-octanol or PBS solution. After one day had passed, the phases were separated, centrifuged, and the absorption of the solution was measured again. From the absorption difference of the stock solutions, the distribution coefficient (D) was determined using previously described formulae [71].

[4] = system: Capan2, a pancreatic adenocarcinoma cell line; design: method as in PMID 34638791; conditions: SRB assay, 48 h; data previously published; cited from earlier work
[5] = system: ID8 ovarian cancer cell line; design: method as in PMID 34638791; conditions: SRB assay, 48 h; data previously published; cited from earlier work
[6] = design: method as in PMID 34638791; conditions: data previously published; cited from earlier work
[7] = system: A2780 ovarian cancer cells; design: method as in PMID 34638791; conditions: SRB assay, 48 h; data previously published; cited from earlier work
[8] = system: human primary fibroblasts; design: method as in PMID 34638791; conditions: SRB assay, 48 h, data previously published, cited from earlier work
[9] = system: ID8 ovarian cancer cell line; experiment: SRB assay, 48 h, cytostasis, ID8; assay type: cell-based; conditions: 48 h treatment
Procedure: as §1
ID8 cells were cultured in a high-glucose DMEM (4.5 g/L glucose) medium, supplemented with 4% fetal calf serum, 2 mM glutamine, 1% penicillin-streptomycin, and 1% ITS supplement (I3146).
as §3, §4

[10] = system: human primary fibroblasts; experiment: SRB assay, 48 h, cytostasis, primary fibroblasts; assay type: cell-based; conditions: MTT 4 h and SRB 48 h
Procedure: The compounds were tested between 0.001694 and 33.3333 µM, using a 4-hour-long MTT test to assess rapid toxicity and a 48-hour-long SRB assay to assess the long-term effects of the inhibition of proliferation (cytostasis). The MTT assay assesses the activity of mitochondrial complex I and detects rapid, direct toxicity, as well as indicating apoptosis and necrosis. The SRB assay measures the total protein content that is proportional to cell numbers; therefore, the assay can detect changes in cell numbers and can thus be used as a readout for cell proliferation. The SRB assay was performed after 48 h of treatment (with the exception of L428 cells, which were tested for 96 h due to their slower proliferation rate). In this setting, the SRB assay informs us of long-term changes to cell proliferation. We assessed the maximal inhibition within that concentration range, and descriptive statistics were performed. We performed a one-way ANOVA, followed by the Kruskal–Wallis test, regardless of the normal or non-normal distribution of the data. […]
The assay was performed similarly to the method used in [73]. […] Plates were measured in a plate photometer (Thermo Scientific Multiscan GO spectrophotometer, Waltham, MA, USA) at 540 nm. […] In calculations, the readings for these wells were considered as 1 and all readings were expressed relative to these values. […]

| Compound | toxicity on A2780 cells in short-term MTT assay (in words) [1] | cytostatic activity on A2780 cells in SRB assay (in words) [2] | Capan2 Max. Inh. (%) [4] [%] | pIC50 [4] | pIC50 [5] | ID8 Max. Inh. (%) [5] [%] | LogD [6] | A2780 Max. Inh. (%) [7] [%] | pIC50 [7] | also measured |
| --- | --- | --- | --- | --- | --- | --- | --- | --- | --- | --- |
| Cc1ccc(C(C)C)cc1.F[P-](F)(F)(F)(F)F.O=C(OCC1OC(c2noc(-c3ccccn3)n2)C(OC(=O)c2ccccc2)C(OC(=O)c2ccccc2)C1OC(=O)c1ccccc1)c1ccccc1.[Cl][Ru+] (mixture of isomers) [Ru-1] | neither of them showed considerable activity | neither of them showed considerable activity | – | – | – | – | – | – | – | LogD [3]: 2.79 |
| Cc1ccc(C(C)C)cc1.F[P-](F)(F)(F)(F)F.OCC1OC(c2noc(-c3ccccn3)n2)C(O)C(O)C1O.[Cl][Ru+] (mixture of isomers) [Ru-2] | neither of them showed considerable activity | neither of them showed considerable activity | – | – | – | – | – | – | – | LogD [3]: −0.96 |
| Cc1ccc(C(C)C)cc1.F[P-](F)(F)(F)(F)F.O=C(OCC1OC(c2nnc(-c3ccccn3)o2)C(OC(=O)c2ccccc2)C(OC(=O)c2ccccc2)C1OC(=O)c1ccccc1)c1ccccc1.[Cl][Ru+] (mixture of isomers) [Ru-3] | – | – | 100 | 5.49 | 5.25 | 100 | 2.41 | 100 | 5.21 | – |
| Cc1ccc(C(C)C)cc1.F[P-](F)(F)(F)(F)F.O=C(OCC1OC(c2nnc(-c3ccccn3)o2)C(OC(=O)c2ccccc2)C(OC(=O)c2ccccc2)C1OC(=O)c1ccccc1)c1ccccc1.[Cl][Ru+] (mixture of isomers) [Ru-4] | – | – | 100 | 5.42 | 5.10 | 100 | 2.44 | 100 | 5.37 | – |
| Cc1ccc(C(C)C)cc1.F[P-](F)(F)(F)(F)F.O=C(OC1COC(c2nnc(-c3ccccn3)o2)C(OC(=O)c2ccccc2)C1OC(=O)c1ccccc1)c1ccccc1.[Cl][Ru+] (mixture of isomers) [Ru-5] | – | – | 100 | 5.30 | 5.17 | 100 | 2.04 | 100 | 5.07 | Fibroblast Max. Inh. (%) ([8]; ND = not detected): 80%; pIC50 ([8]; read-out: Fibroblast IC50): 4.61 |
| Cc1ccc(C(C)C)cc1.F[P-](F)(F)(F)(F)F.O=C(OCC1OC(n2cc(-c3ccccn3)nn2)C(OC(=O)c2ccccc2)C(OC(=O)c2ccccc2)C1OC(=O)c1ccccc1)c1ccccc1.[Cl][Ru+] (mixture of isomers) [Ru-6] | – | – | 100 | 5.66 | 5.67 | 100 | 2.85 | 100 | 6.06 | – |
| OC[C@H]1O[C@@H](c2noc(-c3ccccn3)n2)[C@H](O)[C@@H](O)[C@@H]1O [Complex L-2, 3-(β-D-Glucopyranosyl)-5-(pyridin-2-yl)-1,2,4-oxadiazole] | practically inactive | practically inactive | – | – | – | – | – | – | – | – |
| Cc1c(C)c(C)[c-](C)c1C.Cc1c(C)c(C)[c-](C)c1C.[Cl-].[Cl-].[Cl-].[Cl-].[Ir+3].[Ir+3] [Ir-dimer, dichloro(pentamethylcyclopentadienyl)iridium(III) dimer] | – | inactive | – | – | – | – | – | – | – | cytostatic activity on ID8 cells, SRB assay (in words) [9]: inactive; cytotoxic or cytostatic activity on fibroblasts (in words) [10]: None of the complexes, Ir-1‒Ir-12, or the Ir-dimer exerted cytotoxic or cytostatic activity on fibroblasts |
| dichloro(pentamethylcyclopentadienyl)rhodium(III) dimer [Rh-dimer] | – | inactive | – | – | – | – | – | – | – | cytostatic activity on ID8 cells, SRB assay (in words) [9]: inactive; cytotoxic or cytostatic activity on fibroblasts (in words) [10]: None of the complexes Rh-3‒Rh-6 or the Rh-dimer exerted cytotoxic or cytostatic activity on fibroblasts |

From paper PMC8776094, “Reactive Oxygen Species Production Is Responsible for Antineoplastic Activity of Osmium, Ruthenium, Iridium and Rhodium Half-Sandwich Type Complexes with Bidentate Glycosyl Heterocyclic Ligands in Various Cancer Cell Models” (International Journal of Molecular Sciences, 2022)
